{
  "source": "patent US20140004209A1",
  "about": "“AUTOPHAGY INDUCER AND INHIBITOR COMBINATION THERAPY FOR THE TREATMENT OF NEOPLASMS” (GENENTECH, INC., priority 2010, published 2014)",
  "assay_type_in_all_cases": "cell-based, human",
  "key": {"[1]": {"tested_on": "PC3 cells", "assay": "Immunoblot of LAMP1, cathepsin D and p62 in PC3 cells", "excerpt": "Western blot analysis, immunofluorescence, 1HC and TUNEL assay: For Western blot analysis, total protein lysates were subjected to SDS-PAGE and transferred to nitrocellulose. Antibodies used were: anti-Akt1, anti-Akt2, anti-Akt3, anti-total-Akt, anti-p-Akt (Ser473), anti-p-Akt (Thr308), anti-p-S6 (Ser235/236), anti-PARP and anti-cleaved caspase-3 (Cell Signaling Technology); anti-p-PRAS40 (Invitrogen); anti-p27^Kip1 (Santa Cruz Biotechnology); anti-LC3 (Novus); anti-LAMP2 and anti-Cathepsin D (BD Biosciences); and anti-GAPDH (Advanced Immunochemical Inc.). […] Detection and quantification were performed using an Odyssey infrared scanner (LICOR) using the manufacturer's software. For immunofluorescence staining, cells were fixed in 3% paraformaldehyde and permeabilized with 0.01% digitonin in PBS, followed by a rabbit polyclonal anti-LC3 (Abgent) primary antibody detected with a cy3-conjugated anti-rabbit secondary antibody (Jackson Immunoresearch). For IHC, formalin-fixed, paraffin-embedded specimens were collected. 5-μm-thick paraffin-embedded sections were stained using an anti-Ki-67 (MIB-1, DakoCytomation) antibody with the Dako ARK kit (Dako Corporation). Tissues were counterstained with haematoxylin, dehydrated, and mounted. In all cases, antigen retrieval was performed with the Dako Target Retrieval Kit as per manufacturer's instructions. For TUNEL assay, formalin-fixed, paraffin-embedded sections were stained using an in situ cell death detection kit (POD; Roche Diagnostic) according to the manufacturer's instructions.\nBecause autophagy is a key function of the lysosomal compartment (Terman, A., B. Gustafsson, and U. T. Brunk, (2006), The lysosomal-mitochondrial axis theory of postmitotic aging and cell death. Chem Biol Interact. 163:29-37), we examined the lysosomal marker LAMPI and cathepsin D, the predominant lysosomal aspartic protease, by immunoblotting (FIG. 6, B and C). […] Cathepsin D is synthesized as a 43-kD preprocathepsin D that is cleaved cotranslationally and glycosylated to form a 46-kD procathepsin D, which is targeted to lysosomes yielding an intermediate that is further cleaved into a mature enzyme consisting of a 15-kD light chain and a 28-kD heavy chain."}, "[2]": {"tested_on": "PC3 cells", "assay": "Autophagy markers in PC3 cells (EM AVs, GFP-LC3, LC3-II/LC3-I, MDC, AO)"}, "[3]": {"tested_on": "PC3 cells", "assay": "Mitochondrial superoxide (MitoSOX red) and cellular ROS in PC3 cells", "description": "(B) PC3 cells treated as in A were stained with the Image-iT LIVE green ROS Detection kit and examined by fluorescence microscopy at 24 h. […] (C) Quantification of MitoSOX red and ROS green fluorescence intensities by flow cytometry at 24 h. Cells were treated as in A and B. Error bars represent SEM (n=3).\nBecause mitochondria are the primary intracellular source of superoxide (O2^−) generation, we analyzed O2^− production using MitoSOX red, an O2^− indicator that accumulates in the mitochondria as a function of membrane potential and fluoresces upon oxidation and subsequent binding to DNA."}, "[4]": {"tested_on": "PC3 cells", "assay": "PC3 cell viability and cell death (PI exclusion, annexin V, caspase-3/7)", "settings": "4 μM II-4, 10 μM CQ, 0.5% FBS, 10 d"}, "[5]": {"tested_on": "PC3 cells", "assay": "Time-lapse microscopy of PC3 cells", "settings": "5% FBS", "procedure": "Time-lapse video microscopy: Cells cultured in 24-well plates were imaged on an Olympus IX81 inverted microscope under environmental control (37° C. and 5% CO2) for 3 days. Imaging started 6 hours after the addition of the compounds and was taken at 1-hour intervals."}},
  "note": "Entries after “also recorded” stand apart in the source; their conditions may differ. Read-outs that look alike come from different tables or passages of the source.",
  "data": [
    {"molecule": "O=c1[nH]c2ccccc2n1C1CCN(Cc2ccc(-c3nc4cc5nc[nH]c5cc4nc3-c3ccccc3)cc2)CC1", "note": "[II-4, 1-(1-(4-(7-phenyl-1H-imidazo[4,5-g]quinoxalin-6-yl)benzyl)piperidin-4-yl)-1H-benzo[d]imidazol-2 (3H)-one]", "values": [
      {"measurement": "cathepsin D forms, II-4 and CQ", "setting": "[1]", "value": "the precursor forms of cathepsin D accumulated to even higher levels than either alone, whereas the mature 28-kD chain decreased gradually"},
      {"measurement": "p62 level", "setting": "[1]", "value": "reduced the level of p62"},
      {"measurement": "LAMP1 levels", "setting": "[1]; agent alone", "value": "increase in LAMP1 levels"},
      {"measurement": "p62 level", "setting": "[1]; listed as Akti", "value": "caused a reduction in p62 levels"},
      {"measurement": "AVO accumulation and apoptotic nuclei, II-4 and CQ (multispectral imaging flow cytometry)", "setting": "[2]", "value": "further increase in AVO accumulation in live cells and a concomitant increase in cells with condensed apoptotic nuclei"},
      {"measurement": "AVO accumulation, agent alone (multispectral imaging flow cytometry)", "setting": "[2]", "value": "induced AVO accumulation without significant loss of viability"},
      {"measurement": "AVs and nuclei by EM, Akti-1/2 and CQ", "setting": "[2]; 5 μM Akti-1/2, 10 μM CQ, 0.5% FBS", "value": "accumulation of larger AVs and the appearance apoptotic nuclei"},
      {"measurement": "accumulation of LC3-II", "setting": "[2]; II-4 alone", "value": "significant accumulation of LC3-II within 24 h"},
      {"measurement": "accumulation of LC3-II, with CQ cotreatment", "setting": "[2]; II-4 and 10 μM CQ", "value": "further enhanced upon CQ cotreatment"},
      {"measurement": "induction of AV accumulation / autophagy, agent alone", "setting": "[2]; listed as Akti-1/2", "value": "induced overt autophagy; also recorded: induced accumulation of AVs"},
      {"measurement": "MitoSOX fluorescence, agent alone", "setting": "[3]", "value": "increased MitoSOX fluorescence within 6 h"},
      {"measurement": "cellular ROS levels, II-4 (Akti-1/2) with CQ", "setting": "[3]", "value": "cotreatment with CQ caused a prolonged increase in ROS levels"},
      {"measurement": "cellular ROS signal, agent alone", "setting": "[3]", "value": "attenuated within 48 h"},
      {"measurement": "MitoSOX fluorescence, II-4 and CQ", "setting": "[3]; 3 μM II-4, 10 μM CQ", "value": "significant increase in fluorescence intensity"},
      {"measurement": "cellular ROS levels, II-4 (Akti-1/2) with CQ", "setting": "[3]; listed as Akti-1/2", "value": "caused a prolonged increase in vacuolar fluorescence"},
      {"measurement": "cellular ROS signal, agent alone", "setting": "[3]; listed as Akti-1/2", "value": "first induced a homogeneous increase in ROS level, but by 48 hours the fluorescence became significantly reduced"},
      {"measurement": "cell viability, II-4 (Akti-1/2) in combination with CQ", "setting": "[4]", "value": "CQ accelerated cell death in combination with II-4; also recorded: rapid drop in cell viability with complete cell death observed by day 10"},
      {"measurement": "cell viability, II-4 (Akti-1/2) in combination with CQ", "setting": "[4]; listed as Akti-1/2", "value": "significantly accelerated death rate"},
      {"measurement": "cell morphology, II-4 and CQ", "setting": "[5]; 10 μM II-4, 10 μM CQ", "value": "cell shrinkage and plasma membrane rupture was observed within 48 h"},
      {"measurement": "cell division and morphology, agent alone", "setting": "[5]; 10 μM, 3 d", "value": "near-complete inhibition of cell division without overt cell death"}
    ]}
  ]
}
